Measured values taken from US20130072523A1, “ANALOGUES FOR THE TREATMENT OR PREVENTION OF FLAVIVIRUS INFECTIONS” (VERTEX PHARMACEUTICALS INCORPORATED, priority 2009, published 2013).

tested on: HCV 1b genotype; test: Cell-based luciferase reporter HCV (Ib) RNA replication assay (Huh-ET replicon cells); settings: Hepatitis C virus, 96 h; HCV 1b genotype replicon, 4 days incubation, luciferase readout
From the text: Cell-Based Luciferase Reporter HCV (Ib) RNA Replication Assay Cell Culture
Replicon cell lines Huh-5.2 are derived from the Huh-7 hepatocarcinoma cell line are maintained in culture as generally described in Krieger, N; Lohmann, V; Bartenschlager, R. Enhancement of hepatitis C virus RNA replication by cell culture-adaptive mutations. J. Virol. 2001, 75, 4614-4624. The Huh-5.2 cells contain the highly cell culture-adapted replicon I389 Luc-ubi-neo/NS3-375.1 construct that carries, in addition to the neomycin gene, an integrated copy to the firefly luciferase gene (Krieger, N; Lohmann, V; Bartenschlager, R. Enhancement of hepatitis C virus RNA replication by cell culture-adaptive mutations. J. Virol. 2001, 75, 4614-4624). This cell line allows measurement of HCV RNA replication and translation by measuring luciferase activity. It has been previously shown that the luciferase activity tightly follows the replicon RNA level in these cells (Krieger, N; Lohmann, V; Bartenschlager, R. Enhancement of hepatitis C virus RNA replication by cell culture-adaptive mutations. J. Virol. 2001, 75, 4614-4624). The Huh-ET cell line has the same features as those mentioned for Huh-5.2 cell line, except that ET cells are more robust and contain an adaptative mutation in the HCV NS4B gene instead of NS5A. Both cell lines are maintained in cultures at a sub-confluent level (<85%) as the level of replicon RNA is highest in actively proliferating cells. The culture media used for cell passaging consist of DMEM (Gibco BRL Laboratories, Mississauga, ON, Canada) supplemented with 10% foetal bovine serum with 1% penicilin/streptomycin, 1% glutamine, 1% sodium pyruvate, 1% non-essential amino acids, and 180 μg/ml of G418 final concentration. Cells are incubated at 37° C., in an atmosphere of 5% CO2 and passaged twice a week to maintain sub-confluence.
Approximately 3000 viable Huh-ET cells (100 μl) are plated per well in a white opaque 96-well microtiter plate. The cell culture media used for the assay is the same as described above except that it contains no G418 and no phenol red. After an incubation period of 3-4 hours at 37° C. in a 5% CO2 incubator, compounds (100 μl) are added at various concentrations. Cells are then further incubated for 4 days at 37° C. in a 5% CO2 incubator. Thereafter, the culture media is removed and cells are lysed by the addition of 95 μL of the luciferase buffer (luciferin substrate in buffered detergent). Cell lysates are incubated at room temperature and protected from direct light for at least 10 minutes. Plates are read for luciferase counts using a luminometer (Wallac MicroBeta Trilux, Perkin Elmer™, MA, USA).
The 50% inhibitory concentrations (IC50s) for inhibitory effect are determined from dose response curves using eleven concentrations per compound in duplicate. Curves are fitted to data points using nonlinear regression analysis, and IC50s are interpolated from the resulting curve using GraphPad Prism software, version 2.0 (GraphPad Software Inc., San Diego, Calif., USA).
EC50 ranges are presented in micromolar as follows: μM+++<=0.005<++<=5.0<+.

| SMILES | IC50 |
| --- | --- |
| COC(=O)N[C@H](C(=O)N1CCC[C@H]1c1ncc(C#Cc2ccc(C#Cc3cnc([C@@H]4CCCN4C(=O)[C@@H](NC(=O)OC)C(C)C)[nH]3)c3c2OCO3)[nH]1)C(C)C [Compound 2] | ≤ 5 nM |
| COC(=O)N[C@H](C(=O)N1CCC[C@H]1c1ncc(C#Cc2ccc(C#Cc3cnc([C@@H]4CCCN4C(=O)[C@@H](NC(=O)OC)C(C)C)[nH]3)s2)[nH]1)C(C)C [Compound 3] | ≤ 5 nM |
| [2H]c1c([2H])c(C#Cc2cnc([C@@H]3C[C@H](C)CN3C(=O)[C@@H](NC(=O)OC)C(C)C)[nH]2)c([2H])c([2H])c1C#Cc1cnc([C@@H]2C[C@H](C)CN2C(=O)[C@@H](NC(=O)OC)C(C)C)[nH]1 [Compound 5] | ≤ 5 nM |
| COC(=O)N[C@H](C(=O)N1C[C@@H](C)C[C@H]1c1nc(C#Cc2ccc3cc(C#Cc4c[nH]c([C@@H]5C[C@H](C)CN5C(=O)[C@@H](NC(=O)OC)C(C)C)n4)ccc3c2)c[nH]1)C(C)C [Compound 6] | ≤ 5 nM |
| COC(=O)N[C@H](C(=O)N1C[C@@H](C)C[C@H]1c1nc(C#Cc2ccc(C#Cc3c[nH]c([C@@H]4C[C@H](C)CN4C(=O)[C@@H](NC(=O)OC)[C@@H](C)OC)n3)cc2)c[nH]1)[C@@H](C)OC [Compound 7] | ≤ 5 nM |
| COC(=O)N[C@H](C(=O)N1C[C@@H](C)C[C@H]1c1ncc(C#Cc2cc(C)c(C#Cc3cnc([C@@H]4C[C@H](C)CN4C(=O)[C@@H](NC(=O)OC)C(C)C)[nH]3)cc2C)[nH]1)C(C)C [Compound 8] | ≤ 5 nM |
| COC(=O)N[C@H](C(=O)N1C[C@H](C)C[C@H]1c1nc(C#Cc2ccc(C#Cc3c[nH]c([C@@H]4C[C@@H](C)CN4C(=O)[C@@H](NC(=O)OC)C(C)C)n3)cc2)c[nH]1)C(C)C [Compound 9] | ≤ 5 nM |
| COC(=O)N[C@H](C(=O)N1C[C@@H](C)C[C@H]1c1ncc(C#Cc2cc3sc(C#Cc4cnc([C@@H]5C[C@H](C)CN5C(=O)[C@@H](NC(=O)OC)C(C)C)[nH]4)cc3s2)[nH]1)C(C)C [Compound 10] | ≤ 5 nM |
| COC(=O)N(C)[C@H](C(=O)N1C[C@@H](C)C[C@H]1c1ncc(C#Cc2ccc(C#Cc3cnc([C@@H]4C[C@H](C)CN4C(=O)[C@H](C(C)C)N(C)C(=O)OC)[nH]3)cc2)[nH]1)C(C)C [Compound 11] | ≤ 5 nM |
| COC(=O)N[C@H](C(=O)N1C[C@@H](C)C[C@H]1c1ncc(C#Cc2ccc(C#Cc3cnc([C@@H]4C[C@H](C)CN4C(=O)[C@H](C(C)C)N(C)C(=O)OC)[nH]3)cc2)[nH]1)C(C)C [Compound 12] | ≤ 5 nM |
| COC(=O)N[C@H](C(=O)N1CCC[C@H]1c1nc(C#Cc2ccc(C#Cc3c[nH]c([C@@H]4CCCN4C(=O)[C@@H](NC(=O)OC)C(C)C)n3)c3ocnc23)c[nH]1)C(C)C [Compound 13] | ≤ 5 nM |
| COC(=O)N[C@H](C(=O)N1CCC[C@H]1c1nc(C#Cc2cc3sc(C#Cc4c[nH]c([C@@H]5CCCN5C(=O)[C@@H](NC(=O)OC)C(C)C)n4)cc3s2)c[nH]1)C(C)C [Compound 14] | ≤ 5 nM |
| COC(=O)N[C@H](C(=O)N1CCC[C@H]1c1nc(C#CC#Cc2c[nH]c([C@@H]3CCCN3C(=O)[C@@H](NC(=O)OC)C(C)C)n2)c[nH]1)C(C)C [Compound 15] | 5 to 5000 nM |
| COC(=O)N[C@H](C(=O)N1C[C@@H](C)C[C@H]1c1nc(C#Cc2ccc(C#Cc3c[nH]c([C@@H]4C[C@H](C)CN4C(=O)[C@@H](NC(=O)OC)C(C)C)n3)c(C)c2)c[nH]1)C(C)C [Compound 16] | ≤ 5 nM |
| COC(=O)N[C@H](C(=O)N1C[C@@H](C)C[C@H]1c1nc(CCc2ccc(CCc3c[nH]c([C@@H]4C[C@H](C)CN4C(=O)[C@@H](NC(=O)OC)C(C)C)n3)cc2)c[nH]1)C(C)C [Compound 17] | 5 to 5000 nM |
| COC(=O)N[C@H](C(=O)N1C[C@@H](C)C[C@H]1c1nc(C)c(C#Cc2ccc(C#Cc3[nH]c([C@@H]4C[C@H](C)CN4C(=O)[C@@H](NC(=O)OC)C(C)C)nc3C)cc2)[nH]1)C(C)C [Compound 18] | ≤ 5 nM |
| COC(=O)N[C@H](C(=O)N1CCC[C@H]1c1nc(C)c(C#Cc2ccc(C#Cc3[nH]c([C@@H]4CCCN4C(=O)[C@@H](NC(=O)OC)C(C)C)nc3C)cc2)[nH]1)C(C)C [Compound 19] | ≤ 5 nM |

| SMILES | IC50 |
| --- | --- |
| COC(=O)N[C@H](C(=O)N1C[C@@H](C)C[C@H]1c1ncc(C#Cc2ccc(C#Cc3[nH]c([C@@H]4C[C@H](C)CN4C(=O)[C@@H](NC(=O)OC)C(C)C)nc3I)cc2)[nH]1)C(C)C [Compound 20] | ≤ 5 nM |
| COC(=O)N[C@H](C(=O)N1C[C@@H](C)C[C@H]1c1nc(I)c(C#Cc2ccc(C#Cc3[nH]c([C@@H]4C[C@H](C)CN4C(=O)[C@@H](NC(=O)OC)C(C)C)nc3I)cc2)[nH]1)C(C)C [Compound 21] | ≤ 5 nM |
| C[C@H]1C[C@@H](c2ncc(C#Cc3ccc(C#Cc4cnc([C@@H]5C[C@H](C)CN5C(=O)OC(C)(C)C)[nH]4)cc3)[nH]2)N(C(=O)OC(C)(C)C)C1 [Compound 23] | 5 to 5000 nM |
| C[C@@H]1CN[C@H](c2ncc(C#Cc3ccc(C#Cc4cnc([C@@H]5C[C@H](C)CN5)[nH]4)cc3)[nH]2)C1 [Compound 24] | 5 to 5000 nM |
| COC(=O)N[C@H](C(=O)N1C[C@@H](C)C[C@H]1c1nc(-c2cc3sc(-c4c[nH]c([C@@H]5C[C@H](C)CN5C(=O)[C@@H](NC(=O)OC)C(C)C)n4)cc3s2)c[nH]1)C(C)C [Compound 26] | ≤ 5 nM |
| COC(=O)N[C@H](C(=O)N1C[C@@H](C)C[C@@H]1c1ncc(C#Cc2ccc(C#Cc3cnc([C@@H]4C[C@@H](C)CN4C(=O)[C@@H](NC(=O)OC)C(C)C)[nH]3)cc2)[nH]1)C(C)C [Compound 27] | 5 to 5000 nM |
| COC(=O)N[C@H](C(=O)N1C[C@H](C)C[C@H]1c1nc(C)c(C#Cc2ccc(C#Cc3[nH]c([C@@H]4C[C@@H](C)CN4C(=O)[C@@H](NC(=O)OC)C(C)C)nc3C)cc2)[nH]1)C(C)C [Compound 28] | ≤ 5 nM |
| COC(=O)N[C@H](C(=O)N1C[C@@H](C)C[C@H]1c1nc(C)c(C#Cc2cc(F)c(C#Cc3[nH]c([C@@H]4C[C@H](C)CN4C(=O)[C@@H](NC(=O)OC)C(C)C)nc3C)cc2F)[nH]1)C(C)C [Compound 29] | ≤ 5 nM |
| COC(=O)N[C@H](C(=O)N1C[C@@H](C)C[C@H]1c1nc(C)c(C#Cc2ccc(C#Cc3[nH]c([C@@H]4C[C@H](C)CN4C(=O)[C@@H](NC(=O)OC)C(C)C)nc3C)c(F)c2)[nH]1)C(C)C [Compound 31] | ≤ 5 nM |
| COC(=O)N[C@@H](C(=O)N1C[C@@H](C)C[C@H]1c1ncc(C#Cc2ccc(C#Cc3cnc([C@@H]4C[C@H](C)CN4C(=O)[C@H](NC(=O)OC)C(C)C)[nH]3)cc2)[nH]1)C(C)C [Compound 32] | 5 to 5000 nM |
| COC(=O)N[C@H](C(=O)N1C[C@@H](C)C[C@H]1c1ncc(C#Cc2ccc(C#Cc3cnc([C@@H]4C[C@H](C)CN4C(=O)[C@H](NC(=O)OC)C(C)C)[nH]3)cc2)[nH]1)C(C)C [Compound 33] | ≤ 5 nM |
| COC(=O)N[C@H](C(=O)N1C[C@@H](C)C[C@H]1c1ncc(C#Cc2ccc(C#Cc3cnc([C@@H]4C[C@H](C)CN4C(=O)[C@@H](NC(=O)OC)C(C)C)[nH]3)c(F)c2)[nH]1)C(C)C [Compound 36] | ≤ 5 nM |
| COC(=O)N[C@H](C(=O)N1C[C@@H](C)C[C@H]1c1nc(C)c(C#Cc2ccc3cc(C#Cc4[nH]c([C@@H]5C[C@H](C)CN5C(=O)[C@@H](NC(=O)OC)C(C)C)nc4C)ccc3c2)[nH]1)C(C)C [Compound 37] | ≤ 5 nM |
| COC(=O)N[C@H](C(=O)N1C[C@H](C)C[C@H]1c1ncc(C#Cc2ccc(C#Cc3cnc([C@@H]4C[C@H](C)CN4C(=O)[C@@H](NC(=O)OC)C(C)C)[nH]3)cc2)[nH]1)C(C)C [Compound 38] | ≤ 5 nM |
| COC(=O)N[C@H](C(=O)N1C[C@@H](C)C[C@H]1c1ncc(C#Cc2ccc(C#Cc3cnc([C@@H]4C[C@H](C)CN4)[nH]3)cc2)[nH]1)C(C)C [Compound 39] | 5 to 5000 nM |
| COC(=O)N[C@H](C(=O)N1C[C@@H](C)C[C@H]1c1ncc(C#Cc2ccc(C#Cc3cnc([C@@H]4C[C@H](C)CN4C(=O)[C@@H](NC(=O)OC)C(C)C)[nH]3)c3nsnc23)[nH]1)C(C)C [Compound 40] | ≤ 5 nM |
| CC[C@H]1C[C@@H](c2ncc(C#Cc3ccc(C#Cc4cnc([C@@H]5C[C@H](CC)CN5C(=O)[C@@H](NC(=O)OC)C(C)C)[nH]4)cc3)[nH]2)N(C(=O)[C@@H](NC(=O)OC)C(C)C)C1 [Compound 41] | ≤ 5 nM |
